In US10111847B2, “Compounds and methods for modulating vascular injury” (The Regents of the University of California, priority 2012, dated 2018):

Key:
Format in all cases: cell-based, human
[1] = test system: TNF-α-stimulated VSMC; experiment: Static monocyte (U937) adhesion assay, TNF-α-stimulated VSMC (RvD); conditions: U937 monocytes; TNF-α 10 ng/ml 4 hours; peak inhibition at 10 nM
Text: (§1) Primary cultures of human greater saphenous vein smooth muscle cells (hVSMC) are isolated from saphenous vein discarded at the time of bypass operation in an Institutional Review Board-approved protocol as described by Conte et al. “Regulation of vein graft hyperplasia by survivin, an inhibitor of apoptosis protein.” Arterioscler Thromb Vasc Biol. 2005; 25:2081-2087. VSMCs are maintained in Dulbecco's modified Eagle's medium (DMEM Low Glucose) (HyClone Laboratories Inc, Logan, Utah) containing 10% fetal bovine serum (FBS) (Invitrogen Life Technologies, Grand Island, N.Y.) and used between passages 2-5. Endothelial cells were maintained in Medium 199 supplemented with EBSS (Hyclone Laboratories, Logan, Utah, USA) and Endothelial Cell Growth Supplement. Cells between passages 3-8 were used for the experiments.
RvD. […] Fluorescence measurements (excitation 494 nm, emission 517 nm) of bound monocytes are made with plate reader (Spectra Max M2, Molecular Devices, LLC, Sunnyvale, Calif.).
(§2) FIG. 1: RvD1 and RvD2 attenuate cell adhesion, proliferation, and migration responses of human VSMC in-vitro. […] Results are shown as relative percent inhibition, expressed as a percentage of the maximal adhesion for the agonist (n=6, results are mean±SEM, **P<0.01, *P<0.05, unpaired t-test). […] Results are expressed as percentage change in migration from unstimulated control (no PDGF). […]

[2] = test system: VSMC; experiment: Transwell migration of VSMC to PDGF-AB; conditions: 100 nM; chemotaxis to PDGF-AB 50 ng/mL, 8 hours; P<0.01
Text: as §1
RvD. […]
as §2

[3] = test system: VSMC; experiment: MTT cell viability assay; conditions: 1-100 nM for 8 hours
Description: Cells are plated onto 24-well plates and treated with or without RvD1 or RvD2 (1, 10, and 100 nM) for 8 hours. MTT viability assay is performed per manufacturer's instructions (TOX1 assay, Sigma).
FIG. 8: Cell viability is not affected by RvD1 or RvD2. Cells were treated with or without RvD1 or RvD2 (1, 10, and 100 nM) for 8 hours.

[4] = test system: ICAM-1; experiment: TNF-α-stimulated ICAM-1 gene expression in VSMC by qRT-PCR; conditions: 100 nM; TNF-α 10 ng/ml 18 hours; P<0.01
Description: (§3) Cells are plated onto 6-well plates at 100% confluency in DMEM plus 10% FBS and allowed to attached overnight. Cells are then made quiescent by placing in serum-free media for 48-72 hours prior to start of experiments. Cells are treated with or without RvD1 or RvD2 at the indicated concentrations for one hour followed by co-incubation with cytokine (TNF-α 10 ng/ml) for up to 18 hours. In a separate set of experiments to examine the role of G-protein receptors, VSMCs are exposed to TNF-α and RvD2 (10 nM) as described above, in the presence or absence of pertussis toxin (PTX 100 ng/ml). Total RNA from rabbit sample or cells is isolated with PureLink RNA Mini kit (Ambion Life Technologies, Carlsbad, Calif.) with RNase-free DNase treatment according to manufacturer's protocol. One microgram of total RNA (from either VSMC or rabbit tissue) is used to generate cDNA using High Capacity cDNA Reverse Transcription Kit (Applied Biosystems, Foster City, Calif.) for subsequent RT-PCR reactions. Sybrgreen Amplified DNA is detected by incorporation SYBR Green (Qiagen, Germantown, Md.). Dissociation curve analyses are performed to confirm the specificity of the SYBR Green signal. Data is normalized to at least two reference genes. […]
(§4) FIG. 2: RvD1 and RvD2 reduce pro-inflammatory gene expression in VSMC. […] Expression of the cell adhesion molecules VCAM-1 (A) and ICAM-1 (B) was measured by qRT-PCR. […]

[5] = test system: TNF-α, IL-1β, MCP-1, IL-6, and IL-1α; experiment: TNF-α-stimulated inflammatory cytokine gene expression in VSMC by qRT-PCR; conditions: 0.1 nM or 10 nM, greatest attenuation in IL-1β
Description: as §3, §4

Structure (SMILES)	maximum % inhibition of monocyte adhesion [1] [%]	Maximum % reduction in the cell migration assay [2] [%]	loss of cell viability (MTT cytotoxicity assay) [3]	ICAM-1 expression, maximum % reduction [4] [%]	expression of multiple inflammatory cytokines including TNF-α, IL-1β, MCP-1, IL-6, and IL-1α [5]
CC/C=C\C[C@H](O)/C=C/C=C\C=C\C=C\[C@@H](O)[C@@H](O)C/C=C\CCC(=O)O [RvD1, Resolvin D1]	36	63	did not display significant loss of cell viability	63	broad, significant reduction
CC/C=C\C[C@H](O)[C@H](O)/C=C/C=C/C=C\C=C\[C@@H](O)C/C=C\CCC(=O)O [RvD2, resolvin D2]	41	69	did not display significant loss of cell viability	70	broad, significant reduction
